# Reference: article PMC9437215, “Synthesis and antibacterial activity evaluation of N (7) position-modified balofloxacins” (Frontiers in Chemistry, 2022)
# Where two headings read alike, the source gives them in different places.
# Columns and labels:
# E. coli = assay: MIC and MBC determinations in vitro, E. coli; assay type: cell-based; conditions: Escherichia coli, E. coli clinical isolate; for MIC: 24 h culture; for MBC: solid medium 24 h
# Experimental: (§1) The three strains of MRSA, P. aeruginosa, and E. coli used in this experiment were from clinical isolates, which were provided by the People’s Liberation Army 304 Hospital.
# (§2) To evaluate the antibacterial activities of newly synthesized N (7) position modified fluoroquinolones, the minimum inhibitory (MIC) and bactericidal (MBC) concentrations of these compounds toward bacteria were measured.
# Hemolytic activity = assay type: cell-based, rabbit; conditions: male, New Zealand white, rabbit, red cell suspension from rabbit blood; even at high concentrations (> 10^5 × MIC), 37°C, 24 h; read-out: hemolysis rate
# Experimental: The animal experiment was approved by the Laboratory Animal Management Committee/Laboratory Animal Welfare Ethics Committee, Institute of Radiation Medicine, Chinese Academy of Medical Sciences (No. IRM-DWLL-2019153). Hemolysis anemia is one of the major adverse reactions of antibiotics. To assess the blood compatibility of N (7) position modified balofloxacin, the hemolytic activity of 2-e was tested. Fresh rabbit blood, obtained from the ear vein of a male New Zealand white rabbit, was diluted at a ratio of 1:20 in volume with PBS, centrifuged and resuspended in PBS at 1,000 rpm for 5 min to form an experimental red cell suspension. 500 μL drug 2-e solution and equal volumes of blood suspension were mixed in which the final drug concentration was 500, 250, 125, 62.5, 31.25, 15.62, 7.81, 3.91, 1.95, and 0.98 μg/ml, respectively, these mixtures were incubated at 37°C for 24 h. The positive control group was an equal volume of diluted blood cells mixed with an equal volume of 0.5% Triton X-100. The negative control group was mixed with an equal volume of PBS and diluted blood cells. After incubation, the mixture in a series of centrifuge tubes was centrifuged under the same conditions, and 200 μL of the supernatant was aspirated and transferred to a 96-well plate. The release of hemoglobin from the main contents was measured at A405nm using a microplate reader (Thermo, Varioskan Flash 3001, United States). Each data were from the triplicate experiments. The percentage of hemolysis in the hemolysis test was calculated according to the following formula: %Hemolysis=(A405 test sample−A405 negative control)/(A405 positive control−A405 negative control).
# MRSA cells = assay: Cell wall damage monitored by atomic force microscopy (AFM); assay type: cell-based; conditions: 10 μM, 37°C, 30 min
# Experimental: To observe the structural changes in the bacterial surface after the administration of balofloxacin derivative 2-e, atomic force microscope assay was performed. The bacterial suspension was diluted with LB liquid medium to 10^7 CFU/ml. The bacterial solution and the drug solution were mixed in an equal volume so that the concentration of 1e and 2-e was 10 μM in the final solution, respectively. And after mixing, it was incubated at 37°C for 30 min, together with the control group in the same way. After that, the sample was centrifuged at 9,000 rpm for 5 min and the supernatant was discarded, while the precipitate was washed twice with physiological saline in the same volume and centrifuged at 9,000 rpm for 5 min. Finally, the bacterial sample, prepared by dispersion in the same volume of physiological saline solution, was dropped onto the surface of the mica plate (about 0.5 cm^2), dried naturally at ambient temperature, and scanned by an atomic force microscope.
# MRSA [1] = assay: Time-dependent antibacterial effects in vitro; assay type: cell-based
# Experimental: In order to further verify the antibacterial effect of the representative compound 2-e, time-dependent bactericidal activity of 2-e against MRSA was determined. This study referred to the reported methods ([Ling et al., 2015]). MRSA was cultured overnight in LB liquid and the bacterial solution at 10^9 CFU/ml tested on the machine was diluted at 1:10,000 with LB liquid medium and cultured at 37°C, 180 rpm. […] Time-dependent bacterial colonies were evaluated at 4 or 8 h intervals as follows: 100 μL of the mixture at the current time point was taken and centrifuged at 10,000 rpm for 2 min, and the pellet formed was dispersed with PBS, which was diluted by the ten-fold dilution method. 100 μL of bacterial dilution was evenly spread on LB solid medium at 37°C for 24 h. The colonies counted, according to national standards, accounted for the drug’s time-dependent antibacterial results. The same experimental operation was repeated three times independently.
# MRSA [2] = assay: MIC and MBC determinations in vitro, MRSA; assay type: cell-based; conditions: Staphylococcus aureus, MRSA, 24 h, MRSA clinical isolate; for MIC: 24 h culture, read-out: MIC; for MBC: solid medium 24 h, read-out: MBC
# Experimental: as §1, §2
# P. aeruginosa = assay: MIC and MBC determinations in vitro, P. aeruginosa; assay type: cell-based; conditions: P. aeruginosa clinical isolate; for MIC: 24 h culture; for MBC: solid medium 24 h
# Experimental: as §1, §2
# [3] = test system: MRSA, P. aeruginosa, and E. coli; assay: MIC and MBC values stated over the three strains together; assay type: cell-based; conditions: range over MIC and MBC and the three strains; read-out: MIC and MBC values
# Experimental: as §1, §2
# [4] = Pseudomonas aeruginosa, read-out: MIC
# [5] = Pseudomonas aeruginosa, read-out: MBC
SMILES,MIC (E. coli) [µg/mL],MBC (E. coli) [µg/mL],hemolysis at 24 h (Hemolytic activity) [%],structural change of MRSA cells in AFM image (MRSA cells),"antibacterial activity in early and late stages of the exponential growth phase (MRSA [1]; 10 × MIC, MRSA)","log10 CFU after the first 8 h (MRSA [1]; early exponential phase, start log10 CFU 5.5, 10 × MIC)",MIC (MRSA [2]) [µg/mL],MBC (MRSA [2]) [µg/mL],MIC (P. aeruginosa) [µg/mL],MBC (P. aeruginosa) [µg/mL],MIC (P. aeruginosa; [4]) [µg/mL],MBC (P. aeruginosa; [5]) [µg/mL],MBC [3] [µg/mL],melting point [°C]
"CNC1CCCN(c2c(F)cc3c(=O)c(C(=O)O)cn(C4CC4)c3c2OC)C1 (centres unmarked) [Compound 1e, balofloxacin]",0.078,0.156,≤ 5,ruptured and there was an outflow of cellular contents,good antibacterial activity,0,0.078,0.156,0.078,0.156,0.078,0.156,,
"C[C@H]1COc2c(C3(N)CC3)c(F)cc3c(=O)c(C(=O)O)cn1c23 [Compound 1g, pazufloxacin, reference compound]",0.156,0.313,,,,,0.156,0.313,,,0.313,0.625,0.156 to 0.625,
"CC(=O)NC1(c2c(F)cc3c(=O)c(C(=O)O)cn4c3c2OCC4C)CC1 (centres unmarked) [Compound 2-g, 10-(1-Acetamidocyclopropyl)-9-fluoro-3-methyl-7-oxo-2,3-dihydro-7H-[1,4]oxazino[2,3,4-ij]quinoline-6-carboxylic acid]",25,50,,,,,25,50,,,25,50,25 to 50,273.1 to 274.1
"COc1c(N2CCCC(N(C)C(=O)C3CC3)C2)c(F)cc2c(=O)c(C(=O)O)cn(C3CC3)c12 (centres unmarked) [Compound 11-e, 1-Cyclopropyl-6-fluoro-8-methoxy-7-(3-(N-methylcyclopropanecarboxamido)piperidin-1-yl)-4-oxo-1,4-dihydroquinoline-3-carboxylic acid]",10,20,,,,,0.039,0.078,,,0.078,0.156,,104.6 to 106.5
"COc1c(N2CCCC(N(C)C(=O)c3ccco3)C2)c(F)cc2c(=O)c(C(=O)O)cn(C3CC3)c12 (centres unmarked) [Compound 13-e, 1-Cyclopropyl-6-fluoro-8-methoxy-7-(3-(N-methylfuran-2-carboxamido)piperidin-1-yl)-4-oxo-1,4-dihydroquinoline-3-carboxylic acid]",10,20,,,,,0.078,0.156,,,0.078,0.156,,167.5 to 168.7
"COc1c(N2CCCC(N(C)C(=O)C3CCCO3)C2)c(F)cc2c(=O)c(C(=O)O)cn(C3CC3)c12 (centres unmarked) [Compound 14-e, 1-Cyclopropyl-6-fluoro-8-methoxy-7-(3-(N-methyltetrahydrofuran-2-carboxamido)piperidin-1-yl)-4-oxo-1,4-dihydroquinoline-3-carboxylic acid]",20,20,,,,,0.078,0.156,,,0.156,0.313,,140.2 to 141.2
"COc1c(N2CCCC(N(C)C(=O)C3CCCC3)C2)c(F)cc2c(=O)c(C(=O)O)cn(C3CC3)c12 (centres unmarked) [Compound 16-e, 1-Cyclopropyl-6-fluoro-8-methoxy-7-(3-(N-methylcyclopentanecarboxamido)piperidin-1-yl)-4-oxo-1,4-dihydroquinoline-3-carboxylic acid]",20,40,,,,,0.313,0.625,,,0.313,0.625,,105.1 to 106.4
"COc1c(N2CCCC(N(C)C(=O)CC#N)C2)c(F)cc2c(=O)c(C(=O)O)cn(C3CC3)c12 (centres unmarked) [Compound 22-e, 7-(3-(2-Cyano-N-methylacetamido)piperidin-1-yl)-1-cyclopropyl-6-fluoro-8-methoxy-4-oxo-1,4-dihydroquinoline-3-carboxylic acid]",0.78,1.56,,,,,0.39,0.78,,,0.78,1.56,,184.8 to 186.2
